Data: PubChem BioAssay AID248 (DTP/NCI, 2004)
Several values for one entry are separate records, joined by “and”; a condition that tells them apart may be missing. Equal values may be shown once. Inconclusive results and toxic doses are left out.

Tested on: L1210 leukemia ip in BDF1 mice, survival T/C
Assay: NCI In Vivo Anticancer Drug Screen. Data for tumor model L1210 Leukemia (intraperitoneal) in B6D2F1 (BDF1) mice
Details: endpoint: mean survival time, higher = longer survival
Method in brief: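 Transplanted-tumor mice were given test agent; controls received vehicle only. Survival readings from the two groups were divided (treated over control).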

[1] = dose: 20.0 mg/kg/injection, schedule: Q01DX009 (ip), vehicle: Klucel (hydroxypropylcellulose) (HPC)
[2] = dose: 100.0 mg/kg/injection, schedule: Q04DX003 (ip), vehicle: saline with Tween-80
[3] = dose: 200.0 mg/kg/injection, schedule: Q04DX003 (ip), vehicle: saline with Tween-80
[4] = dose: 25.0 mg/kg/injection, schedule: Q04DX003 (ip), vehicle: saline
[5] = dose: 50.0 mg/kg/injection, schedule: Q04DX003 (ip), vehicle: saline
[6] = dose: 100.0 mg/kg/injection, schedule: Q04DX003 (ip), vehicle: saline
[7] = dose: 200.0 mg/kg/injection, schedule: Q04DX003 (ip), vehicle: saline
[8] = dose: 100.0 mg/kg/injection, schedule: Q01DX001 (ip), vehicle: other
[9] = dose: 200.0 mg/kg/injection, schedule: Q01DX001 (ip), vehicle: other
[10] = dose: 400.0 mg/kg/injection, schedule: Q01DX001 (ip), vehicle: other
[11] = dose: 100.0 mg/kg/injection, schedule: Q01DX001 (ip), vehicle: saline
[12] = dose: 400.0 mg/kg/injection, schedule: Q04DX003 (ip), vehicle: saline
[13] = dose: 100.0 mg/kg/injection, schedule: Q01DX009 (ip), vehicle: Klucel (hydroxypropylcellulose) (HPC)

`CCS(=O)(=O)Nc1ccc(Nc2c3ccccc3nc3ccccc23)c(OC)c1` was tested. Which T/C (dose: 2.5 mg/kg/injection, schedule: Q01DX009 (ip), vehicle: Klucel (hydroxypropylcellulose) (HPC)) did it give?
Its T/C is 152 % of control.

And the T/C (dose: 5.0 mg/kg/injection, schedule: Q01DX009 (ip), vehicle: Klucel (hydroxypropylcellulose) (HPC))?
Its T/C is 168 % of control.

What about the T/C (dose: 5.0 mg/kg/injection, schedule: Q01DX009 (ip), vehicle: saline) of the same compound?
Its T/C is 155 % of control.

And the T/C (dose: 10.0 mg/kg/injection, schedule: Q01DX009 (ip), vehicle: Klucel (hydroxypropylcellulose) (HPC))?
The T/C was 163 % of control.

And the T/C (dose: 10.0 mg/kg/injection, schedule: Q01DX009 (ip), vehicle: saline)?
The T/C was 216 % of control.

What about the T/C [1] of the same compound?
The T/C was 86 % of control.

For `CCCCCCCC[n+]1cccc(C(N)=O)c1`, which T/C [2] is on record?
The T/C was 98 % of control.

What about the T/C [3] of the same compound?
The T/C was 89 % of control.

`CN(C)CCN1C(=O)c2ccccc2N(C)c2ccccc21` was tested. Which T/C [4] did it give?
The T/C was 96 % of control.

What about the T/C [5] of the same compound?
Its T/C is 96 % of control.

For `c1ccc(C[N+](Cc2ccccc2)=C2CCCCC2)cc1`, which T/C (dose: 50.0 mg/kg/injection, schedule: Q01DX009 (ip), vehicle: saline) is on record?
Its T/C is 92 % of control.

And the T/C (dose: 100.0 mg/kg/injection, schedule: Q01DX009 (ip), vehicle: saline)?
The T/C was 100 % of control.

What about the T/C [6] of the same compound?
The T/C was 98 % of control.

And the T/C [7]?
The T/C was 103 % of control.

Which results are given for `Cc1c(Cl)c(C)c(Cl)c(O)c1Cl`?
T/C [2]: 97 % of control; T/C [3]: 96 % of control; T/C (dose: 400.0 mg/kg/injection, schedule: Q04DX003 (ip), vehicle: saline with Tween-80): 97 % of control

What does the source list for `CC(C(=O)O)N(C)C(=O)c1cnc2ccccc2n1` (stereo unspecified)?
T/C (dose: 100.0 mg/kg/injection, schedule: Q01DX001 (ip), vehicle: carboxymethylcellulose (CMC)): 94 % of control; T/C (dose: 100.0 mg/kg/injection, schedule: Q04DX003 (ip), vehicle: carboxymethylcellulose (CMC)): 95 % of control; T/C (dose: 200.0 mg/kg/injection, schedule: Q01DX001 (ip), vehicle: carboxymethylcellulose (CMC)): 96 % of control; T/C (dose: 200.0 mg/kg/injection, schedule: Q04DX003 (ip), vehicle: carboxymethylcellulose (CMC)): 99 % of control; T/C (dose: 400.0 mg/kg/injection, schedule: Q01DX001 (ip), vehicle: carboxymethylcellulose (CMC)): 89 % of control; T/C (dose: 400.0 mg/kg/injection, schedule: Q04DX003 (ip), vehicle: carboxymethylcellulose (CMC)): 97 % of control

Which T/C [8] does the source give for `O=C(OCCOC(=O)c1cccc([N+](=O)[O-])c1)c1cccc([N+](=O)[O-])c1` here?
Its T/C is 95 % of control.

What about the T/C [9] of the same compound?
Its T/C is 96 % of control.

And the T/C [10]?
The T/C was 96 % of control.

With `O=S1(=O)CCS(=O)(=O)C12CCCCC2` as the compound, how does the T/C [11] read?
The T/C was 98 % of control.

What about the T/C (dose: 200.0 mg/kg/injection, schedule: Q01DX001 (ip), vehicle: saline) of the same compound?
Its T/C is 107 % of control.

And the T/C (dose: 400.0 mg/kg/injection, schedule: Q01DX001 (ip), vehicle: saline)?
Its T/C is 90 % of control.

For `CCC(C)(CC)NC(C)=O`, which T/C (dose: 100.0 mg/kg/injection, schedule: Q04DX003 (ip), vehicle: Klucel (hydroxypropylcellulose) (HPC)) is on record?
Its T/C is 99 % of control.

And the T/C (dose: 200.0 mg/kg/injection, schedule: Q04DX003 (ip), vehicle: Klucel (hydroxypropylcellulose) (HPC))?
Its T/C is 103 % of control.

How did the T/C (dose: 12.5 mg/kg/injection, schedule: Q04DX003 (ip), vehicle: saline) turn out when `ClCCN1CCN(CCCN2c3ccccc3CCc3ccccc32)CC1` was run?
The T/C was 106 % of control.

What about the T/C [4] of the same compound?
The T/C was 94 % of control.

And the T/C [5]?
Its T/C is 114 % of control.

And the T/C [6]?
The T/C was 102 % of control and 110 % of control.

What about the T/C (dose: 150.0 mg/kg/injection, schedule: Q04DX003 (ip), vehicle: saline) of the same compound?
The T/C was 93 % of control.

What about the T/C (dose: 225.0 mg/kg/injection, schedule: Q04DX003 (ip), vehicle: saline) of the same compound?
Its T/C is 103 % of control.

What about the T/C (dose: 335.0 mg/kg/injection, schedule: Q04DX003 (ip), vehicle: saline) of the same compound?
Its T/C is 93 % of control and 109 % of control.

And the T/C [12]?
The T/C was 101 % of control.

How did the T/C (dose: 25.0 mg/kg/injection, schedule: Q04DX002 (ip), vehicle: Klucel (hydroxypropylcellulose) (HPC)) turn out when `Cc1cnnn1-c1cccc(C(F)(F)F)c1` was run?
Its T/C is 92 % of control.

What about the T/C (dose: 50.0 mg/kg/injection, schedule: Q04DX002 (ip), vehicle: Klucel (hydroxypropylcellulose) (HPC)) of the same compound?
The T/C was 92 % of control.

And the T/C (dose: 100.0 mg/kg/injection, schedule: Q04DX002 (ip), vehicle: Klucel (hydroxypropylcellulose) (HPC))?
The T/C was 99 % of control and 88 % of control.

With `COc1cc(Cl)ccc1NC(=O)Oc1ccc2c(C)cc(=O)oc2c1` as the compound, how does the T/C [13] read?
Its T/C is 100 % of control.

What does the source list for `C=CCN1CCCC1=O`?
T/C [6]: 95 % of control; T/C [7]: 96 % of control; T/C [12]: 95 % of control

`CN(C)C(=O)c1ccc(NCc2cnc3nc(N)nc(N)c3n2)cc1` was tested. Which T/C [1] did it give?
Its T/C is 97 % of control.

And the T/C (dose: 40.0 mg/kg/injection, schedule: Q01DX009 (ip), vehicle: Klucel (hydroxypropylcellulose) (HPC))?
Its T/C is 96 % of control.

What about the T/C (dose: 80.0 mg/kg/injection, schedule: Q01DX009 (ip), vehicle: Klucel (hydroxypropylcellulose) (HPC)) of the same compound?
The T/C was 97 % of control.

What does the source list for `CC/C(=N/OC(=O)N(CC)CC)c1ccccc1`?
T/C [8]: 96 % of control; T/C [9]: 91 % of control; T/C [10]: 93 % of control

Which T/C (dose: 100.0 mg/kg/injection, schedule: Q04DX003 (sc), vehicle: carboxymethylcellulose (CMC)) does the source give for `CC1C(c2ccccc2)N1P(=O)(c1ccccc1)c1ccccc1` (stereo unspecified) here?
Its T/C is 102 % of control.

And the T/C (dose: 200.0 mg/kg/injection, schedule: Q04DX003 (sc), vehicle: carboxymethylcellulose (CMC))?
The T/C was 104 % of control.

What about the T/C (dose: 400.0 mg/kg/injection, schedule: Q04DX003 (sc), vehicle: carboxymethylcellulose (CMC)) of the same compound?
Its T/C is 98 % of control.

For `Cc1ccn2c(=O)c(CCBr)c(C)nc2c1`, which T/C (dose: 4.7 mg/kg/injection, schedule: Q01DX009 (ip), vehicle: saline) is on record?
The T/C was 101 % of control.

What about the T/C (dose: 9.4 mg/kg/injection, schedule: Q01DX009 (ip), vehicle: saline) of the same compound?
The T/C was 100 % of control.

What about the T/C (dose: 18.8 mg/kg/injection, schedule: Q01DX009 (ip), vehicle: saline) of the same compound?
The T/C was 91 % of control.

What about the T/C (dose: 18.8 mg/kg/injection, schedule: Q04DX003 (ip), vehicle: saline) of the same compound?
Its T/C is 94 % of control.

Which results are given for `O=C(/C=C/c1ccc([N+](=O)[O-])o1)c1cccc([N+](=O)[O-])c1`?
T/C (dose: 25.0 mg/kg/injection, schedule: Q01DX009 (ip), vehicle: Klucel (hydroxypropylcellulose) (HPC)): 100 % of control; T/C (dose: 50.0 mg/kg/injection, schedule: Q01DX009 (ip), vehicle: Klucel (hydroxypropylcellulose) (HPC)): 103 % of control

How did the T/C (dose: 16.5 mg/kg/injection, schedule: Q01DX005 (ip), vehicle: saline) turn out when `Cn1cnc([N+](=O)[O-])c1[Se]c1nc(N)nc2c1ncn2C1CC(O)C(CO)O1` (stereo unspecified) was run?
Its T/C is 159 % of control.

What about the T/C (dose: 25.0 mg/kg/injection, schedule: Q01DX005 (ip), vehicle: saline) of the same compound?
Its T/C is 202 % of control.

What about the T/C (dose: 25.0 mg/kg/injection, schedule: Q01DX009 (ip), vehicle: saline) of the same compound?
Its T/C is 150 % of control.

And the T/C (dose: 37.5 mg/kg/injection, schedule: Q01DX005 (ip), vehicle: saline)?
The T/C was 219 % of control.

What about the T/C (dose: 37.5 mg/kg/injection, schedule: Q01DX009 (ip), vehicle: saline) of the same compound?
The T/C was 158 % of control.

What about the T/C (dose: 50.0 mg/kg/injection, schedule: Q01DX005 (ip), vehicle: saline) of the same compound?
Its T/C is 98 % of control.

What about the T/C (dose: 62.5 mg/kg/injection, schedule: Q01DX005 (ip), vehicle: saline) of the same compound?
Its T/C is 117 % of control.

What about the T/C (dose: 62.5 mg/kg/injection, schedule: Q01DX009 (ip), vehicle: saline) of the same compound?
The T/C was 105 % of control.

`COc1ccc(OC(=O)Nc2cc([N+](=O)[O-])ccc2F)cc1` was tested. Which T/C [13] did it give?
Its T/C is 106 % of control.

And the T/C (dose: 200.0 mg/kg/injection, schedule: Q01DX009 (ip), vehicle: Klucel (hydroxypropylcellulose) (HPC))?
The T/C was 93 % of control.

And the T/C (dose: 400.0 mg/kg/injection, schedule: Q01DX009 (ip), vehicle: Klucel (hydroxypropylcellulose) (HPC))?
Its T/C is 93 % of control.

How did the T/C [11] turn out when `COc1ccc2c3c1OC1C(O)C=CC4C(C2)N(C)CCC341` (stereo unspecified) was run?
Its T/C is 98 % of control.

With `CP(=O)(Cc1ccccc1)c1ccccc1` (stereo unspecified) as the compound, how does the T/C (dose: 75.0 mg/kg/injection, schedule: Q01DX001 (ip), vehicle: saline) read?
The T/C was 101 % of control.

What about the T/C (dose: 150.0 mg/kg/injection, schedule: Q01DX001 (ip), vehicle: saline) of the same compound?
The T/C was 103 % of control.

What about the T/C (dose: 300.0 mg/kg/injection, schedule: Q01DX001 (ip), vehicle: saline) of the same compound?
The T/C was 103 % of control.
